Reference: paper PMC9025269, “Synthesis and Anti-Hepatitis B Activities of 3′-Fluoro-2′-Substituted Apionucleosides” (Molecules, 2022)

Legend:
human DNA polymerase β = biological target: T1, human DNA polymerase β (Homo sapiens, UniProt P06746); assay: Human DNA polymerase β DdDp assay; type: biochemical
T1 construct: purchased CHIMERx 1077-1
Experimental: The DNA-dependent DNA polymerization (DdDp) activity of human DNA polymerases α, β, and γ was measured as described previously. Briefly, the assays were run with 5 U/mL recombinant DNA polymerase α (CHIMERx, cat#1075-1), 0.5 U/mL recombinant DNA polymerase β (CHIMERx, cat#1077-1), or 0.1 μg/mL recombinant DNA polymerase γ (Abcam, cat#196066), 62 μg/mL activated calf thymus DNA, 50 mM Tris-HCl (pH 8.0), 60 mM KCl, 5 mM MgCl2, 4 mM dithiothreitol (DTT), 0.1 mg/mL BSA, 2 μM dCTP, 2 μM dATP, 2 μM dGTP, 0.05 μCi/μL ^3H-dTTP (Perkin Elmer) and compounds at various concentrations at 30 °C for 2 h. The 50 μL reactions were processed following the same filter plate method as described above for HIV-1 RT. Acid-precipitated tritiated DNA products retained on the filters were detected by a Trilux MicroBeta scintillation reader (Perkin Elmer). All data were analyzed as described above for HIV-1 RT.

HBV polymerase = biological target: T2, HBV polymerase (Hepatitis B virus genotype D subtype ayw, UniProt P03156); assay: HBV polymerase RdDp activity assay; type: biochemical; details: read-out: HBV pol IC50
T2 construct: Recombinant HBV polymerase (Hepatitis B virus genotype D subtype ayw, full length); made in house; host or cells: Sf9 insect cells (baculovirus)
Text: HIV-1 reverse transcriptase (HIV-1 RT) was purchased from Abcam (cat#ab63979). Recombinant HBV polymerase (Hepatitis B virus genotype D subtype ayw, full length) was cloned using the baculovirus system, expressed in sf9 cells, and purified with similar strategy and methods described by Lanford et al.. A DNA primer (5′-[…]-3′) was synthesized by IDTDNA and a 358-nt RNA template was synthesized in-house using Megascript T7 transcription kit (ThermoFisher, cat#AM1334). dNTPs were purchased from Thermo Fisher and ^3H-dTTP from Perkin Elmer. Filter plates were purchased from Millipore (cat#MABN0V050) and microscint-20 was purchased from Perkin Elmer (cat#6013621).
The RdDp activity of HBV polymerase was measured similarly as described for the HIV-1 RT. To test compound inhibition effect, the reactions were performed at 30 °C for 120 min in a reaction mixture containing reaction buffer (50 mM Tris-Cl, pH 7.5, 100 mM KCl, 12.5 mM MgCl2, 4 mM DTT), 15 µg/mL polymerase, 0.5 µM DNA primer, 0.05 µM RNA template, 10% DMSO, 0.046 µM dATP, 0.057 µM dGTP, 0.017 µM dCTP, 0.32 µM ^3H-dTTP, and compounds at various concentrations.
All data were analyzed with GraphPad Prism. […]

T2 sequence (P03156 whole entry): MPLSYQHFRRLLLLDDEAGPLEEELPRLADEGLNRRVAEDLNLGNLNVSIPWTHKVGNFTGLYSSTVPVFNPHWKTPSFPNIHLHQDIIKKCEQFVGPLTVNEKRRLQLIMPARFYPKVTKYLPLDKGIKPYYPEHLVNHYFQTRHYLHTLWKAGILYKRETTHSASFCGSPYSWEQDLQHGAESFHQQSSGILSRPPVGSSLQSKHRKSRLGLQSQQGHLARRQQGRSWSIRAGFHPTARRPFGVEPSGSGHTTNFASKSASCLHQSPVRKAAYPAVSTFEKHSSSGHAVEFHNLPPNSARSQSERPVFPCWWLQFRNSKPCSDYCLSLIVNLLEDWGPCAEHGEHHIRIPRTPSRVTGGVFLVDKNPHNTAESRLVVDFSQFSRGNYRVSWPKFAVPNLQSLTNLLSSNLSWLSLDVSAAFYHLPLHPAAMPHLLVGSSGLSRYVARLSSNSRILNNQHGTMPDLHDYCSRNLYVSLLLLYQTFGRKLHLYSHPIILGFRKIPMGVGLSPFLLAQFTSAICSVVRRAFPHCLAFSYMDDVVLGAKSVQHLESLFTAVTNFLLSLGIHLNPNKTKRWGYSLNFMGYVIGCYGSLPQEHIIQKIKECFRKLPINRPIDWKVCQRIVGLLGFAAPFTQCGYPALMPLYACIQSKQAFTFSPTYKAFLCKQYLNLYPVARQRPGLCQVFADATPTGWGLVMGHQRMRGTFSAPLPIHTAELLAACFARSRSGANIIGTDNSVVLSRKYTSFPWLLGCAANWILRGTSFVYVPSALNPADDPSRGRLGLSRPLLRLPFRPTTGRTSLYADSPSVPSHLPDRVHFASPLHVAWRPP

Nc1ncnc2c1ncn2[C@@H]1OC[C@](F)(COP(=O)(O)OP(=O)(O)OP(=O)(O)O)[C@H]1CO [Compound 38, ((3S,4S,5R)-5-(6-Amino-9H-purin-9-yl)-3-fluoro-4-(hydroxymethyl)tetrahydrofuran-3-yl)methyl triphosphate]
IC50 (human DNA polymerase β): > 100 µM
IC50 (HBV polymerase): 0.12 µM
